Values belong to the compound of their own block, whether it stands above or below them.
Columns and labels:
[1] = biological target: Cyclin-dependent kinase 12 ; CDK12 ; Q9NYV4 (Homo sapiens, UniProt Q9NYV4); assay: biochemical; parameters: species or system human cell line lysate
[2] = biological target: Isoform 2 of Cyclin-dependent kinase 17 ; CDK17 ; Q00537-2 (Homo sapiens, UniProt Q00537); assay: biochemical; parameters: species or system human cell line lysate
[3] = biological target: Calcium/calmodulin-dependent protein kinase kinase 2 ; CAMKK2 ; Q96RR4 (Homo sapiens, UniProt Q96RR4); assay: biochemical; parameters: species or system human cell line lysate
[4] = biological target: High affinity nerve growth factor receptor ; NTRK1 ; P04629 (Homo sapiens, UniProt P04629); assay: biochemical; parameters: species or system human cell line lysate
[5] = biological target: Cyclin-dependent kinase 16 ; CDK16 ; Q00536 (Homo sapiens, UniProt Q00536); assay: biochemical; parameters: species or system human cell line lysate
[6] = biological target: Isoform 4 of TRAF2 and NCK-interacting protein kinase ; TNIK ; Q9UKE5-4 (Homo sapiens, UniProt Q9UKE5); assay: biochemical; parameters: species or system human cell line lysate
[7] = biological target: Cyclin-dependent kinase 6 ; CDK6 ; Q00534 (Homo sapiens, UniProt Q00534); assay: biochemical; parameters: species or system human cell line lysate
[8] = biological target: Cyclin-dependent-like kinase 5 ; CDK5 ; Q00535 (Homo sapiens, UniProt Q00535); assay: biochemical; parameters: species or system human cell line lysate
[9] = biological target: Cyclin-dependent kinase 10 ; CDK10 ; Q15131 (Homo sapiens, UniProt Q15131); assay: biochemical; parameters: species or system human cell line lysate
[10] = biological target: Cyclin-dependent kinase 1 ; CDK1 ; P06493 (Homo sapiens, UniProt P06493); assay: biochemical; parameters: species or system human cell line lysate
[11] = biological target: Cyclin-dependent kinase 7 ; CDK7 ; P50613 (Homo sapiens, UniProt P50613); assay: biochemical; parameters: species or system human cell line lysate
[12] = biological target: T1, Ephrin type-B receptor 2 ; EPHB2 ; P29323 (Homo sapiens, UniProt P29323); parameters: species or system mixed lysate of K562, MV4-11, THP-1, NCI-H1155; conditions: DDA-MS residual binding; binder
T1 sequence (P29323 1-1055): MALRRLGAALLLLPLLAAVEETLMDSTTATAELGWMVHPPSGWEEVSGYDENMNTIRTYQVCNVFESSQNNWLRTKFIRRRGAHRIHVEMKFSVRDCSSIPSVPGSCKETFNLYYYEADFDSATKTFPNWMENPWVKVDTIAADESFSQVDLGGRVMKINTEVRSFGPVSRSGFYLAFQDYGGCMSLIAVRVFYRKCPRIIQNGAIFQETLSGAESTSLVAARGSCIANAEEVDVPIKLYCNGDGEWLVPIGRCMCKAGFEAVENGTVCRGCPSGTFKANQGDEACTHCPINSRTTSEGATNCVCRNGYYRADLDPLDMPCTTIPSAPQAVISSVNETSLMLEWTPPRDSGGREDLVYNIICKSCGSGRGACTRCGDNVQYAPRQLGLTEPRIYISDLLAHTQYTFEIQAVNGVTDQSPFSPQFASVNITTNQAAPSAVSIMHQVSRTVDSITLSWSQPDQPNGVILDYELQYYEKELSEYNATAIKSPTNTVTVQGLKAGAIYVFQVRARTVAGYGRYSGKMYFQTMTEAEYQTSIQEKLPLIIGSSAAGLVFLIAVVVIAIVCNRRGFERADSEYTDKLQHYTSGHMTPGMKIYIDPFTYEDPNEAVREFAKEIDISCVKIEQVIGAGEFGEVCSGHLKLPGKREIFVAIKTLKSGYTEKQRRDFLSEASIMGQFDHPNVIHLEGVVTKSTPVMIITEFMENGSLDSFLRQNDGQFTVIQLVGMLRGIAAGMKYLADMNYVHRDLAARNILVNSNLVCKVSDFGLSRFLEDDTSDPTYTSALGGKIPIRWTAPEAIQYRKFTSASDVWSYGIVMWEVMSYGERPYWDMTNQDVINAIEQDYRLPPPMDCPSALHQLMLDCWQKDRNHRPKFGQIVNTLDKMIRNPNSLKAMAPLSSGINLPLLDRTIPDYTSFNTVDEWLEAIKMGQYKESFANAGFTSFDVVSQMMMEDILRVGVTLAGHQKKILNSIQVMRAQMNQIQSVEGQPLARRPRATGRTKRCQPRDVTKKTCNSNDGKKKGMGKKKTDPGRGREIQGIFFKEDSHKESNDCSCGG

Cyclin-dependent kinase 10 ; CDK10 ; Q15131, sequence (Q15131 whole entry, one chain of several): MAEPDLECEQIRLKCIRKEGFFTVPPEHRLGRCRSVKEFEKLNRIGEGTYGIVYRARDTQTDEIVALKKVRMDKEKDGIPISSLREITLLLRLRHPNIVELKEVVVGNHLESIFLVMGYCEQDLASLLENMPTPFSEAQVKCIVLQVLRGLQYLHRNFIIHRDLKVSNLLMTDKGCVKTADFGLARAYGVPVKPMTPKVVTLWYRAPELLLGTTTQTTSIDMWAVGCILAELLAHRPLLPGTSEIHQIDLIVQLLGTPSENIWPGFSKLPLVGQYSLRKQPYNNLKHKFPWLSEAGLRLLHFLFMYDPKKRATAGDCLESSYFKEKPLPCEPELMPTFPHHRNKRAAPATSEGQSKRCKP
Calcium/calmodulin-dependent protein kinase kinase 2 ; CAMKK2 ; Q96RR4, sequence (Q96RR4 whole entry, one chain of several): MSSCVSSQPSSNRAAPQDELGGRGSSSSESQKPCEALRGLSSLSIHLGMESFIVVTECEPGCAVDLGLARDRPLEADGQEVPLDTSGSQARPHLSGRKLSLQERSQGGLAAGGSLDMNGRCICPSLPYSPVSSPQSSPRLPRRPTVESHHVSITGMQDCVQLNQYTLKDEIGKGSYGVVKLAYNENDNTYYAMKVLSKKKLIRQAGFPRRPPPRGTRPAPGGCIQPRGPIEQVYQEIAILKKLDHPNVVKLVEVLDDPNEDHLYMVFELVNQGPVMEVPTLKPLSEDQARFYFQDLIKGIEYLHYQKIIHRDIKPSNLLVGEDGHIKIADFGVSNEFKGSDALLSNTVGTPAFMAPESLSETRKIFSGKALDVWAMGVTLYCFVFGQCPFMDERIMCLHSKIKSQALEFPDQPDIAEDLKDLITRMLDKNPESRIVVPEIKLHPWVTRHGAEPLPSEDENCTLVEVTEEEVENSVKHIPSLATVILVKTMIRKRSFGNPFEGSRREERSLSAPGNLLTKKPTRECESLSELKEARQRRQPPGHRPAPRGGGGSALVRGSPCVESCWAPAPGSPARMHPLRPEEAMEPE
Cyclin-dependent kinase 1 ; CDK1 ; P06493, sequence (P06493 whole entry, one chain of several): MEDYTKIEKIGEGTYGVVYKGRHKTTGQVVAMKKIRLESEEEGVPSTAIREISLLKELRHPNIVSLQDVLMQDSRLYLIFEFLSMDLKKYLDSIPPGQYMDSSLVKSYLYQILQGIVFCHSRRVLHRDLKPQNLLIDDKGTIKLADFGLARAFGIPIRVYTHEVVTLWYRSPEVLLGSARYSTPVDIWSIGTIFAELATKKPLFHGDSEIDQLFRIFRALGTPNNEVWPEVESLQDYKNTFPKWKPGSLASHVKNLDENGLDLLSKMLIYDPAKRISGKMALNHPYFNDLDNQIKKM
Cyclin-dependent kinase 6 ; CDK6 ; Q00534, sequence (Q00534 whole entry, one chain of several): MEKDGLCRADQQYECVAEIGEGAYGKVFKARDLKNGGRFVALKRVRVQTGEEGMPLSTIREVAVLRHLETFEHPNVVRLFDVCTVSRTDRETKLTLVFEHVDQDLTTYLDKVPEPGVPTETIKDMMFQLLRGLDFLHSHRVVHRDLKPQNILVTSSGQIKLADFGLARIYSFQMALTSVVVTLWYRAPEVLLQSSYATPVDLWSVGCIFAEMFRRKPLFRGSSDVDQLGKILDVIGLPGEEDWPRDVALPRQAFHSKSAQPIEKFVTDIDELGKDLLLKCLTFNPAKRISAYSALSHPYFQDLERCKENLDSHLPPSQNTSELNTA
Cyclin-dependent-like kinase 5 ; CDK5 ; Q00535, sequence (Q00535 whole entry, one chain of several): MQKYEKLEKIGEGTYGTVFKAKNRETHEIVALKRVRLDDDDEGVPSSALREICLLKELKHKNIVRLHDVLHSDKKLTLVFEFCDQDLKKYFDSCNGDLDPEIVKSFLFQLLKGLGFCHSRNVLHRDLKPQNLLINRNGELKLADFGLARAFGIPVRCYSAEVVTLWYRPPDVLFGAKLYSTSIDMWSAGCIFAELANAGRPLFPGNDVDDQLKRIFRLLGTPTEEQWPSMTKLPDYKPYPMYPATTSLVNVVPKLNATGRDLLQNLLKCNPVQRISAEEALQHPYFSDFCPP
High affinity nerve growth factor receptor ; NTRK1 ; P04629, sequence (P04629 whole entry): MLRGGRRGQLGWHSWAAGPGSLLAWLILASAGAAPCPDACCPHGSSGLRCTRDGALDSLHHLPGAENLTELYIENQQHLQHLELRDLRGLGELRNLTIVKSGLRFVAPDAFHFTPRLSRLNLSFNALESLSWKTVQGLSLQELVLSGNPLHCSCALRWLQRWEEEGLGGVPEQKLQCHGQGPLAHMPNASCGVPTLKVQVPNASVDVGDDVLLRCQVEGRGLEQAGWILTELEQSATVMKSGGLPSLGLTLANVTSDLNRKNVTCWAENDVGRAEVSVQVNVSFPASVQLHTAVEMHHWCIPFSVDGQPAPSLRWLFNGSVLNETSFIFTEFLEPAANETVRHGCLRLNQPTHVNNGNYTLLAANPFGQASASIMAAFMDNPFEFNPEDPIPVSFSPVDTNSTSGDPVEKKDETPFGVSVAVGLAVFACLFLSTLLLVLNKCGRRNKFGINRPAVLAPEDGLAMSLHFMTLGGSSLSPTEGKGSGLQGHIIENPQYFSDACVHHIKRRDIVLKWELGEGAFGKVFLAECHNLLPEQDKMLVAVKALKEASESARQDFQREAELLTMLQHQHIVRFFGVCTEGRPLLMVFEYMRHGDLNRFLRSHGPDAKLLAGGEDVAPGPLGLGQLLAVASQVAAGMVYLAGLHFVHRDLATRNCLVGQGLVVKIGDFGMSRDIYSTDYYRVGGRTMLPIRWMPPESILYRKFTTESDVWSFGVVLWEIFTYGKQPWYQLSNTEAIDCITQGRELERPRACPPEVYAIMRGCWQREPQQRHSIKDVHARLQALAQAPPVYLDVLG
Isoform 2 of Cyclin-dependent kinase 17 ; CDK17 ; Q00537-2, sequence (Q00537 whole entry, canonical isoform, one chain of several): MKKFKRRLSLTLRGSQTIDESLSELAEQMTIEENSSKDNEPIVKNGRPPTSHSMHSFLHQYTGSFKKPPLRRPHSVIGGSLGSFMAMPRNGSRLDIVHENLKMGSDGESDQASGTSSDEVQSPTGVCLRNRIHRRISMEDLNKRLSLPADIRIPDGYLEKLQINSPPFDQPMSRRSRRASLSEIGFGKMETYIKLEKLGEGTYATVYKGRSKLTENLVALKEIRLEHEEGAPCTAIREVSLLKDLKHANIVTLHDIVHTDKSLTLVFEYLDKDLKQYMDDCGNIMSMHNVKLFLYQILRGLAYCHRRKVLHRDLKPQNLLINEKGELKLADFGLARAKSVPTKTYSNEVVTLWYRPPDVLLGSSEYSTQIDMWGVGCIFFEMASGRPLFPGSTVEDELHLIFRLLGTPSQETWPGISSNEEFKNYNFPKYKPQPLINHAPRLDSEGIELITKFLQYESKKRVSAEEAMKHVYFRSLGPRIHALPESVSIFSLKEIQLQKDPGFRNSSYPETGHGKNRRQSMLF
Isoform 4 of TRAF2 and NCK-interacting protein kinase ; TNIK ; Q9UKE5-4, sequence (Q9UKE5 whole entry, canonical isoform, one chain of several): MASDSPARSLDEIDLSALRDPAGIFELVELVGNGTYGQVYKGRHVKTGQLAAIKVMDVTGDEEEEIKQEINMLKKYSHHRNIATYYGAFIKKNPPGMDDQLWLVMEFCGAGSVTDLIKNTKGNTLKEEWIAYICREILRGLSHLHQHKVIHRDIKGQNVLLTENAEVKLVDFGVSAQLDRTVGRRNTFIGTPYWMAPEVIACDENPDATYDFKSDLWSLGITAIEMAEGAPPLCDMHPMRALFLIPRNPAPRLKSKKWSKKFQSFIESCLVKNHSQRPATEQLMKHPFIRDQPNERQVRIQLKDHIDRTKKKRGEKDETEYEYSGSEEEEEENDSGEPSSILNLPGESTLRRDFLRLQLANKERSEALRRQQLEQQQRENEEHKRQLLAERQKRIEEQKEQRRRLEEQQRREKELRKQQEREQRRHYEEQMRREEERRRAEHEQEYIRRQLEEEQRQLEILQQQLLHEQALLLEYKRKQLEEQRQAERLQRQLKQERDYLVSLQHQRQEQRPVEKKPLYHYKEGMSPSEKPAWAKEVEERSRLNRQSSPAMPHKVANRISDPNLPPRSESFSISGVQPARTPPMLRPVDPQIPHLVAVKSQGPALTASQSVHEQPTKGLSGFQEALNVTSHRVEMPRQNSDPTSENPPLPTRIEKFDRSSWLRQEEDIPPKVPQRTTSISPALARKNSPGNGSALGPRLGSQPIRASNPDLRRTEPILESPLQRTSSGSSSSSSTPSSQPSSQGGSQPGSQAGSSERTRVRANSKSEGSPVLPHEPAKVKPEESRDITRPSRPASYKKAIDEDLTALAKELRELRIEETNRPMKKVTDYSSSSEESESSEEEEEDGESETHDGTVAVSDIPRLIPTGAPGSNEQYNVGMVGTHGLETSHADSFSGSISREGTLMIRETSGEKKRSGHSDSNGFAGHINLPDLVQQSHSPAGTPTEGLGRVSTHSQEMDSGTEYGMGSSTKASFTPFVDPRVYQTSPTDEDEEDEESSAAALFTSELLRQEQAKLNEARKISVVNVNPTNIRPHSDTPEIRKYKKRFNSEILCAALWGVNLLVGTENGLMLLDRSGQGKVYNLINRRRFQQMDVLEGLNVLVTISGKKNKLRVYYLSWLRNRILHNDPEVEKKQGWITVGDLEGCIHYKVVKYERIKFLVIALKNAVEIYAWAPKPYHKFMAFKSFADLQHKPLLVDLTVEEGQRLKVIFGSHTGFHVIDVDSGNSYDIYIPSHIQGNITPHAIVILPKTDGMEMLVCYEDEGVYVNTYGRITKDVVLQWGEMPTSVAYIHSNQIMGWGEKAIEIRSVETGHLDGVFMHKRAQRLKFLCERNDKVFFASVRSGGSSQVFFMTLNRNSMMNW
Cyclin-dependent kinase 7 ; CDK7 ; P50613, sequence (P50613 whole entry, one chain of several): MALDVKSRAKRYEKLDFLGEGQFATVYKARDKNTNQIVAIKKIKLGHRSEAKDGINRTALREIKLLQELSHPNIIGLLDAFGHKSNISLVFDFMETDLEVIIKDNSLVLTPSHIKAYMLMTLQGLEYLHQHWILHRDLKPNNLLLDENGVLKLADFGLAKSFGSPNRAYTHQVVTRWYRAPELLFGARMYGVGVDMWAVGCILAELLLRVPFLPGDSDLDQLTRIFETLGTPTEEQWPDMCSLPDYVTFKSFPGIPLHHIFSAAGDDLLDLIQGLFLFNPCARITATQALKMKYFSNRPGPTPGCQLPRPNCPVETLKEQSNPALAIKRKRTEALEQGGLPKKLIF

IC50 [1]: > 10 µM
IC50 [2]: > 10 µM
IC50 [3]: > 10 µM
IC50 [4]: > 10 µM
IC50 [5]: > 10 µM
IC50 [6]: > 10 µM
Compound: COc1cc(F)ccc1-c1ncnc(Nc2cccc(C[S@](C)(=N)=O)c2)n1 [BAY-1143572]

IC50 [7]: > 10 µM
IC50 [8]: > 10 µM
IC50 [9]: 1.09 µM
IC50 [10]: > 10 µM
IC50 [11]: > 10 µM
Compound: COc1cc(F)ccc1-c1cc(Nc2cc(CS(C)(=N)=O)ccn2)ncc1F (stereo not drawn) [BAY-1251152]

DDA-MS / % Intensity (30 µM/DMSO) [12]: 7.218%
Compound: Cc1nc(Nc2ncc(C(=O)Nc3c(C)cccc3Cl)s2)cc(N2CCN(CCO)CC2)n1 [dasatinib]
